Measurements from patent US12479879B2, “Method for preparing disodium 5′-guanylate heptahydrate crystal” (CJ CHEILJEDANG CORPORATION, priority 2019, dated 2025).
≈ marks a conversion by molar mass, not a printed value.

Test: Solubility of 5′-guanylic acid in aqueous sodium chloride solutions (saturated mixed solution, supernatant concentration)
Details: for Concentration of 5′-Guanylic acid in mixed solution: 25° C.; for 5′-Guanylic acid concentration (g/L) in mixed solution: 40° C.; for solubility thermodynamic: aqueous sodium chloride solution, saline or isotonic
[1] = sodium chloride concentration 300 g/L, supernatant of saturated solution
[2] = sodium chloride concentration 310 g/L, supernatant of saturated solution
[3] = sodium chloride concentration 350 g/L, supernatant of saturated solution
[4] = sodium chloride concentration 360 g/L, supernatant of saturated solution
[5] = sodium chloride concentration 400 g/L, sodium chloride crystals precipitated

Experimental: With the aqueous 5′-guanylic acid solution added to different concentrations of aqueous sodium chloride solutions at temperature 40° C. and 25° C., the solubility of 5′-guanylic acid was examined.
Specifically, the aqueous 5′-guanylic acid solution was sufficiently dissolved in each of the aqueous sodium chloride solutions at 40° C. and 25° C., respectively, to prepare saturated solutions. As a result, 160 g/L to 360 g/L saturated solution of sodium chloride were prepared. […] Then, the concentrations (g/L) of 5′-guanylic acid in supernatants obtained by centrifuging each of the saturated solutions, i.e., the mixed solutions were measured.

For Nc1nc2c(ncn2[C@@H]2O[C@H](COP(=O)(O)O)[C@@H](O)[C@H]2O)c(=O)[nH]1 [5′-Guanylic acid, 5′-guanylic acid], the “Concentration of 5′-Guanylic acid in mixed solution” value (“Concentration of 5′-Guanylic acid” for short) [1] was 18100 µg/mL, the “Concentration of 5′-Guanylic acid” value [2] was 18200 µg/mL and the “Concentration of 5′-Guanylic acid” value [3] was 18200 µg/mL. For the same compound, the “Concentration of 5′-Guanylic acid” value [4] was 18200 µg/mL, the “Concentration of 5′-Guanylic acid” value [5] was 18300 µg/mL and the “5′-Guanylic acid concentration (g/L) in mixed solution” value (“5′-Guanylic acid concentration (g/L)” below) [1] was 49.9 g/L. For the same compound, the “5′-Guanylic acid concentration (g/L)” value [2] was 49.5 g/L, the “5′-Guanylic acid concentration (g/L)” value [3] was 48.9 g/L and the “5′-Guanylic acid concentration (g/L)” value [4] was 49.8 g/L. The “5′-Guanylic acid concentration (g/L)” value [5] was 49.6 g/L, the solubility thermodynamic (25 °C, Concentration of 5′-Guanylic acid in mixed solution (g/L), sodium chloride concentration 160 g/L, supernatant of saturated solution) was 40.1 mg/mL (≈ 110 mM) and the solubility thermodynamic (25 °C, Concentration of 5′-Guanylic acid in mixed solution (g/L), sodium chloride concentration 200 g/L, supernatant of saturated solution) was 26.4 mg/mL (≈ 72.7 mM). For the same compound, the solubility thermodynamic (25 °C, Concentration of 5′-Guanylic acid in mixed solution (g/L), sodium chloride concentration 230 g/L, supernatant of saturated solution) was 22.2 mg/mL (≈ 61.1 mM), the solubility thermodynamic (25 °C, Concentration of 5′-Guanylic acid in mixed solution (g/L), sodium chloride concentration 280 g/L, supernatant of saturated solution) was 19.2 mg/mL (≈ 52.9 mM) and the solubility thermodynamic (25 °C, Concentration of 5′-Guanylic acid in mixed solution (g/L), sodium chloride concentration 420 g/L, sodium chloride crystals precipitated) was 18.2 mg/mL (≈ 50.1 mM). It also gave a solubility thermodynamic (40 °C, 5′-Guanylic acid concentration (g/L) in mixed solution, sodium chloride concentration 160 g/L, supernatant of saturated solution) of 86.5 mg/mL (≈ 238 mM), a solubility thermodynamic (40 °C, 5′-Guanylic acid concentration (g/L) in mixed solution, sodium chloride concentration 200 g/L, supernatant of saturated solution) of 62.7 mg/mL (≈ 173 mM) and a solubility thermodynamic (40 °C, 5′-Guanylic acid concentration (g/L) in mixed solution, sodium chloride concentration 230 g/L, supernatant of saturated solution) of 57.1 mg/mL (≈ 157 mM). For the same compound, the solubility thermodynamic (40 °C, 5′-Guanylic acid concentration (g/L) in mixed solution, sodium chloride concentration 280 g/L, supernatant of saturated solution) was 50.1 mg/mL (≈ 138 mM) and the solubility thermodynamic (40 °C, 5′-Guanylic acid concentration (g/L) in mixed solution, sodium chloride concentration higher than 400 g/L, sodium chloride crystals precipitated) was 48.7 mg/mL (≈ 134 mM).
